# Patent US20080275032A1, “Pyridazinone compounds” (priority 2006, published 2008)
# Molecular target: HCV NS5B polymerase (Hepatitis C virus genotype 1b, UniProt P26663)
# Assay: biochemical
# Details: HCV polymerase inhibition, 50 nM enzyme, 2 h at room temperature, FlashPlate [α-33P]GTP incorporation
# Experimental: NS5B Polymerase Inhibition Assay (IC50)
# Compounds were tested for HCV polymerase inhibition. Assays were performed in a 96-well streptavidin-coated FlashPlate using 50 nM enzyme, 0.5 μCi of [α-^33P]GTP, 0.6 μM GTP, and 50 nM 5′biotinylated oligo (rG13)/poly rC in 20 mM Tris-HCl, pH 7.5, 5 mM MgCl2, 20 mM NaCl, 5 mM dithiothreitol, and 0.1 g/L BSA. The reaction was stopped by aspiration after 2 h at room temperature and the plate was washed several times. After washing, incorporated radioactivity was counted using a Microbeta scintillation counter.
# Chain of HCV NS5B polymerase (P26663 2420-3010): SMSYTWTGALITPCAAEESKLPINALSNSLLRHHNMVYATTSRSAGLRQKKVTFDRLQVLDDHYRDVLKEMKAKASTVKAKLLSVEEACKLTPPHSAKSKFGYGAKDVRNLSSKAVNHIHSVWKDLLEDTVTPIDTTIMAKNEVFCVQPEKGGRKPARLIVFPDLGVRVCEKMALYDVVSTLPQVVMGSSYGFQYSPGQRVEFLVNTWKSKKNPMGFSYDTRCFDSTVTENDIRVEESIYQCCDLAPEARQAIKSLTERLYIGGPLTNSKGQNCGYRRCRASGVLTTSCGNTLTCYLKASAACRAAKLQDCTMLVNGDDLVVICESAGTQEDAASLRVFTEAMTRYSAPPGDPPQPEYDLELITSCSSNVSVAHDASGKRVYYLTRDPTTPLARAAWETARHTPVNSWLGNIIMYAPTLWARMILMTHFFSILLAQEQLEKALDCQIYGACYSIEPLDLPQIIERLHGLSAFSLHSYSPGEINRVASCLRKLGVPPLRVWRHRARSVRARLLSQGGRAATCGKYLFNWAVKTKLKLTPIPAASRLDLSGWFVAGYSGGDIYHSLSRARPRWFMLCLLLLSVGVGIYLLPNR
row,SMILES,IC50 [nM]
1,"CCC(C)(C)c1nn(CCC(C)C)c(=O)c(C2=NS(=O)(=O)c3cc(NS(C)(=O)=O)ccc3N2)c1O [N-{3-[6-(1,1-Dimethyl-propyl)-5-hydroxy-2-(3-methyl-butyl)-3-oxo-2,3-dihydro-pyridazin-4-yl]-1,1-dioxo-1,2-dihydro-1λ^6-benzo[1,2,4]thiadiazin-7-yl}-methanesulfonamide]",100 to 1000
2,"CS(=O)(=O)Nc1ccc2c(c1)S(=O)(=O)N=C(c1c(O)c(-c3cccs3)nn(CCC3CCCC3)c1=O)N2 [N-{3-[2-(2-Cyclopentyl-ethyl)-5-hydroxy-3-oxo-6-thiophen-2-yl-2,3-dihydro-pyridazin-4-yl]-1,1-dioxo-1,2-dihydro-1λ^6-benzo[1,2,4]thiadiazin-7-yl}-methanesulfonamide]",< 100
3,"CC(C)CCn1nc(-c2cncs2)c(O)c(C2=Nc3ccc(NS(=O)(=O)C(C)C)cc3S(=O)(=O)N2)c1=O [Propane-2-sulfonic acid {3-[5-hydroxy-2-(3-methyl-butyl)-3-oxo-6-thiazol-5-yl-2,3-dihydro-pyridazin-4-yl]-1,1-dioxo-1,2-dihydro-1λ^6-benzo[1,2,4]thiadiazin-7-yl}-amide]",< 100
4,"CC(C)CCn1nc(-c2cccs2)c(O)c(C2=Nc3ccc(/C=C/S(C)(=O)=O)cc3S(=O)(=O)N2)c1=O [5-Hydroxy-4-[7-(2-methanesulfonyl-vinyl)-1,1-dioxo-1,2-dihydro-1λ^6-benzo[1,2,4]thiadiazin-3-yl]-2-(3-methyl-butyl)-6-thiophen-2-yl-2H-pyridazin-3-one]",100 to 1000
5,"CN(c1ccc2c(c1)S(=O)(=O)NC(c1c(O)c(-c3cccs3)nn(CC3(C(F)(F)F)CC3)c1=O)=N2)S(C)(=O)=O [N-{3-[5-Hydroxy-3-oxo-6-thiophen-2-yl-2-(1-trifluoromethyl-cyclopropylmethyl)-2,3-dihydro-pyridazin-4-yl]-1,1-dioxo-1,2-dihydro-1λ^6-benzo[1,2,4]thiadiazin-7-yl}-N-methyl-methanesulfonamide]",< 100
6,"CCS(=O)(=O)Nc1ccc2c(c1)S(=O)(=O)NC(c1c(O)c(-c3cncs3)nn(CCC(C)C)c1=O)=N2 [Ethanesulfonic acid {3-[5-hydroxy-2-(3-methyl-butyl)-3-oxo-6-thiazol-5-yl-2,3-dihydro-pyridazin-4-yl]-1,1-dioxo-1,2-dihydro-1λ^6-benzo[1,2,4]thiadiazin-7-yl}-amide]",< 100
7,"CC(C)CCn1nc(-c2ccccc2)c(O)c(C2=Nc3ccc(N(C)S(C)(=O)=O)cc3S(=O)(=O)N2)c1=O [N-{3-[5-Hydroxy-2-(3-methyl-butyl)-3-oxo-6-phenyl-2,3-dihydro-pyridazin-4-yl]-1,1-dioxo-1,2-dihydro-1λ^6-benzo[1,2,4]thiadiazin-7-yl}-N-methyl-methanesulfonamide]",1000 to 10000
8,"CCCS(=O)(=O)Nc1ccc2c(c1)S(=O)(=O)N=C(c1c(O)c(-c3cccs3)nn(CCC(C)C)c1=O)N2 [Propane-1-sulfonic acid {3-[5-hydroxy-2-(3-methyl-butyl)-3-oxo-6-thiophen-2-yl-2,3-dihydro-pyridazin-4-yl]-1,1-dioxo-1,2-dihydro-1λ^6-benzo[1,2,4]thiadiazin-7-yl}-amide]",< 100
9,"CCCC(C)n1nc(-c2cccs2)c(O)c(C2=NS(=O)(=O)c3cc(NS(C)(=O)=O)ccc3N2)c1=O (stereo not shown) [N-{3-[5-Hydroxy-2-(1-methyl-butyl)-3-oxo-6-thiophen-2-yl-2,3-dihydro-pyridazin-4-yl]-1,1-dioxo-1,2-dihydro-1λ^6-benzo[1,2,4]thiadiazin-7-yl}-methanesulfonamide]",100 to 1000
10,"CC(C)CCn1nc(-c2cccs2)c(O)c(C2=NS(=O)(=O)c3cc(N(C)S(C)(=O)=O)ccc3N2C)c1=O [N-{3-[5-Hydroxy-2-(3-methyl-butyl)-3-oxo-6-thiophen-2-yl-2,3-dihydro-pyridazin-4-yl]-4-methyl-1,1-dioxo-1,4-dihydro-1λ^6-benzo[1,2,4]thiadiazin-7-yl}-N-methyl-methanesulfonamide]",1000 to 10000
